From patent US10316017B2, “COT modulators and methods of use thereof” (Gilead Sciences, Inc., priority 2015, dated 2019)
Like-named read-outs stand apart in the source and are kept apart here.

Key:
[1] = molecular target: T1, human Cot catalytic domain (30-397 amino acids) (Homo sapiens, UniProt P41279); test: High Throughput Cot Biochemical Assay (KinEASE TR-FRET); conditions: read-out: IC50 HTRF
T1 construct: Purified recombinant human Cot catalytic domain (30-397 amino acids) was purchased from Cama Biosciences; purchased Cama Biosciences (so in the source)
Procedure, shortened: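 TR-FRET readout: Eu-labeled phospho-specific antibody binds XL665-tagged STK3 peptide after phosphorylation by Cot (aa 30-397, 5 nM). Conditions: 400 μM ATP, 1 μM peptide, MOPS pH 7.0 buffer with MgOAc, DTT, BSA, NP-40, glycerol; 0.1% DMSO.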

[2] = test system: TNFα production in LPS-stimulated human monocytes; test: Cot Monocyte TNFα Cell Based Assay; conditions: read-out: EC50 TNF
Procedure, shortened: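 TR-FRET read-out of total secreted TNFα, normalized as % control (unstimulated = 0%, LPS-stimulated = 100%). Cells (5,000/well) were exposed to compound 1 h at 37 °C, then to 50 pg/ml LPS for a further 4 h.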

[3] = Cot biochemical HTRF (KinEASE TR-FRET) assay
[4] = Homo sapiens, Monocyte, TNFα in LPS-stimulated human monocytes
[5] = Cot KinEASE TR-FRET, 400 μM ATP
[6] = Homo sapiens, Monocyte, LPS-stimulated human monocytes, TNFα TR-FRET
[7] = Cot KinEASE TR-FRET (HTRF) biochemical assay, 400 μM ATP

T1 sequence (P41279 30-397): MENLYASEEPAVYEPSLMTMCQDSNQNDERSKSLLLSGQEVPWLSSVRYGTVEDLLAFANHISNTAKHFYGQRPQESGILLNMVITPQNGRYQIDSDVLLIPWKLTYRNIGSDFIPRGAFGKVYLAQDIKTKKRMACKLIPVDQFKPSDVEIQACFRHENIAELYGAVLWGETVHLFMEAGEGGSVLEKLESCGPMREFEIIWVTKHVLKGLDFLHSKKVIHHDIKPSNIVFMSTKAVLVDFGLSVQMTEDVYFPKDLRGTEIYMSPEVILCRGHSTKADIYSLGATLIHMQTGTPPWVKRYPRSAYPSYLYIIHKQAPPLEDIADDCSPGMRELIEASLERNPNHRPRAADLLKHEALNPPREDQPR

| Structure (SMILES) | IC50 [1, 3] | EC50 [2, 4] | also measured |
| --- | --- | --- | --- |
| Cc1c([C@H](Nc2cc(C#N)c3ncc(C#N)c(NCC(C)(C)C)c3c2)c2cn(C3(C(F)(F)F)CC3)nn2)cccc1-n1ccnc1 [Example 1042] |  |  | IC50 [1, 5]: 2 nM; EC50 [2, 6]: 105 nM |
| COc1c([C@@H](Nc2cc(Cl)c3ncc(C#N)c(NCC(C)(C)C)c3c2)c2ccccc2Cl)nnn1C1(C)CC1 [Example 1170, (S)-8-chloro-6-(((2-chlorophenyl)(5-methoxy-1-(1-methylcyclopropyl)-1H-1,2,3-triazol-4-yl)methyl)amino)-4-(neopentylamino)quinoline-3-carbonitrile] |  |  | IC50 [1, 5]: 217 nM; EC50 [2, 6]: ≥ 1000 nM |
| Cc1ccccc1[C@H](Nc1cc(C#N)c2ncc(C#N)c(NCC(C)(C)C)c2c1)c1cn(C2(C(F)F)CC2)nn1 [Example 1066, (S)-6-(((1-(1-(difluoromethyl)cyclopropyl)-1H-1,2,3-triazol-4-yl)(o-tolyl)methyl)amino)-4-(neopentylamino)quinoline-3,8-dicarbonitrile] |  |  | IC50 [1, 5]: 10 nM; EC50 [2, 6]: 85 nM |
| [2H]C(Nc1cc(Cl)c2ncc(C#N)c(N[C@H](CC)c3ccccc3)c2c1)(c1ccc(F)cc1)c1cn(C2CC2)cn1 (stereo partly drawn) [Example 354, 8-chloro-6-(((1-cyclopropyl-1H-imidazol-4-yl)(4-fluorophenyl)methyl-d)amino)-4-(((R)-1-phenylpropyl)amino) quinoline-3-carbonitrile] |  | 689 nM | IC50 [1, 7]: 86 nM |
| [2H][C@](Nc1cc(C#N)c2ncc(C#N)c(NCC(C)(C)C)c2c1)(c1ccc(F)cc1)c1cn(Cc2c(F)cccc2F)nn1 [Example 1078, (S)-6-(((1-(2,6-difluorobenzyl)-1H-1,2,3-triazol-4-yl)(4-fluorophenyl)methyl-d)amino)-4-(neopentylamino)quinoline-3,8-dicarbonitrile] |  |  | IC50 [1, 5]: 12 nM; EC50 [2, 6]: 175 nM |
| CC(C)(C)N1CCC(n2cc([C@@H](Nc3cc(Cl)c4ncc(C#N)c(NC5CCCC(O)C5)c4c3)c3ccc(F)cc3)nn2)CC1 (stereo partly drawn) [Example 441, 6-(((S)-(1-(1-(tert-butyl)piperidin-4-yl)-1H-1,2,3-triazol-4-yl)(4-fluorophenyl)methyl)amino)-8-chloro-4-((3-hydroxycyclohexyl)amino) quinoline-3-carbonitrile] | 804 nM |  | EC50 ([2]; TNFα in LPS-stimulated human monocytes): 5820 nM |
| Cc1c(-c2ccnnc2)cccc1[C@H](Nc1cc(Cl)c2ncc(C#N)c(NCC(C)(C)C)c2c1)c1cn(C2(C(F)F)CC2)nn1 [Example 1123, (S)-8-chloro-6-(((1-(1-(difluoromethyl)cyclopropyl)-1H-1,2,3-triazol-4-yl)(2-methyl-3-(pyridazin-4-yl)phenyl)methyl)amino)-4-(neopentylamino)quinoline-3-carbonitrile] |  |  | IC50 [1, 5]: 2 nM; EC50 [2, 6]: 42 nM |
| Cc1c(-c2cnco2)cccc1[C@H](Nc1cc(C#N)c2ncc(C#N)c(NCC(C)(C)C)c2c1)c1cn(C2(C(F)(F)F)CC2)nn1 [Example 1131, (S)-6-(((2-methyl-3-(oxazol-5-yl)phenyl)(1-(1-(trifluoromethyl)cyclopropyl)-1H-1,2,3-triazol-4-yl)methyl)amino)-4-(neopentylamino)quinoline-3,8-dicarbonitrile] |  |  | IC50 [1, 5]: 3 nM; EC50 [2, 6]: 38 nM |
| N#Cc1cnc2c(Cl)cc(N[C@@H](c3ccc(F)cc3)c3c[nH]nn3)cc2c1Nc1ccc(F)cc1F [Example 367, (S)-8-chloro-4-((2,4-difluorophenyl)amino)-6-(((4-fluorophenyl)(1H-1,2,3-triazol-4-yl)methyl)amino)quinoline-3-carbonitrile] |  | 3850 nM | IC50 [1, 7]: 297 nM |
| [2H][C@](Nc1cc(-c2ccccn2)c2ncc(C#N)c(NCC(C)(C)C)c2c1)(c1ccc(F)cc1)c1cn(C2CC2)nn1 [Compound 28] |  | > 1000 nM | IC50 [1, 7]: 2000 nM |
| [2H][C@](Nc1cc(Cl)c2ncc(C#N)c(N[C@H](CCC#N)c3ccccc3)c2c1)(c1cccc(C#N)c1)c1cn(C(F)(F)CO)nn1 [Example 51, 8-chloro-4-(((R)-3-cyano-1-phenylpropyl)amino)-6-(((S)-(3-cyanophenyl) (1-(1,1-difluoro-2-hydroxyethyl)-1H-1,2,3-triazol-4-yl)methyl-d)amino) quinoline-3-carbonitrile] |  | 57 nM | IC50 [1, 7]: 1 nM |

Continued, in another order:

| IC50 [1, 3] | EC50 [2, 4] | Structure (SMILES) | also measured |
| --- | --- | --- | --- |
| 41 nM | 376 nM | CN1CC(n2cc([C@@H](Nc3cc(Cl)c4ncc(C#N)c(Nc5ccc(F)c(Cl)c5)c4c3)c3ccccc3)nn2)CC(F)(F)C1 (stereo partly drawn) [Example 736, 8-chloro-4-((3-chloro-4-fluorophenyl)amino)-6-(((1S)-(1-(5,5-difluoro-1-methylpiperidin-3-yl)-1H-1,2,3-triazol-4-yl)(phenyl)methyl)amino) quinoline-3-carbonitrile] |  |
| 850 nM | > 50000 nM | N#Cc1cnc2c(Cl)cc(NC(c3ccc(F)cc3)c3cscn3)cc2c1Nc1ccc(F)c(Cl)c1 (stereo not shown) [Example 806, 8-chloro-4-((3-chloro-4-fluorophenyl)amino)-6-(((4-fluorophenyl)(thiazol-4-yl)methyl)amino)quinoline-3-carbonitrile] |  |
|  | 7580 nM | [2H][C@](Nc1cc(Cl)c2ncc(C#N)c(NC3CS(=O)(=O)C3)c2c1)(c1ccc(F)cc1)c1cn(C2CC2)nn1 [Example 200, (S)-8-chloro-6-(((1-cyclopropyl-1H-1,2,3-triazol-4-yl)(4-fluorophenyl)methyl-d)amino)-4-((1,1-dioxidothietan-3-yl)amino)quinoline-3-carbonitrile] | IC50 [1, 7]: 244 nM |
| 1 nM | 49 nM | CC(C)(C)N1CCC(n2cc([C@@H](Nc3cc(Cl)c4ncc(C#N)c(Nc5ccc(F)c(Cl)c5)c4c3)c3cccc(C(=O)N4CC(F)C4)c3)nn2)CC1 [Example 646, (S)-6-(((1-(1-(tert-butyl)piperidin-4-yl)-1H-1,2,3-triazol-4-yl)(3-(3-fluoroazetidine-1-carbonyl)phenyl)methyl)amino)-8-chloro-4-((3-chloro-4-fluorophenyl)amino)quinoline-3-carbonitrile] |  |
| 10 nM | 403 nM | CC(C)(C)N1CCC(n2cc([C@@H](Nc3cc(Cl)c4ncc(C#N)c(Nc5cnc(F)c(F)c5)c4c3)c3ccccc3)nn2)CC1 [Example 584, (S)-6-(((1-(1-(tert-butyl)piperidin-4-yl)-1H-1,2,3-triazol-4-yl)(phenyl)methyl)amino)-8-chloro-4-((5,6-difluoropyridin-3-yl)amino)quinoline-3-carbonitrile] |  |
| 2140 nM | 2750 nM | CC(C)(C)N1CCC(n2cc([C@@H](Nc3cc(Cl)c4ncc(C#N)c(Nc5ccc(OC(F)(F)F)cc5)c4c3)c3ccc(Cl)cc3)nn2)CC1 [Example 759, (S)-6-(((1-(1-(tert-butyl)piperidin-4-yl)-1H-1,2,3-triazol-4-yl)(4-chlorophenyl)methyl)amino)-8-chloro-4-((4-(trifluoromethoxy)phenyl)amino) quinoline-3-carbonitrile] |  |
| 48 nM | 171 nM | CC1(CNc2c(C#N)cnc3c(Cl)cc(N[C@@H](c4ccccc4)c4cn(C5CCN(C(C)(C)C)CC5)nn4)cc23)CC1 [Example 455, (S)-6-(((1-(1-(tert-butyl)piperidin-4-yl)-1H-1,2,3-triazol-4-yl)(phenyl)methyl)amino)-8-chloro-4-(((1-methylcyclopropyl)methyl)amino)quinoline-3-carbonitrile] |  |
| 87 nM | 1830 nM | CC[C@@H](Nc1c(C#N)cnc2c(Cl)cc(N[C@H](c3cn(C(F)F)nn3)c3cccc(F)c3F)cc12)c1ccccc1 [Example 428, 8-chloro-6-(((S)-(1-(difluoromethyl)-1H-1,2,3-triazol-4-yl)(2,3-difluorophenyl)methyl)amino)-4-(((R)-1-phenylpropyl)amino) quinoline-3-carbonitrile] |  |
| 41 nM | 779 nM | N#Cc1cnc2c(Cl)cc(N[C@@H](c3ccc(F)cc3)c3cn(-c4ccccc4)nn3)cc2c1Nc1cnc(F)c(F)c1 [Example 408, (S)-8-chloro-4-((5,6-difluoropyridin-3-yl)amino)-6-(((4-fluorophenyl) (1-phenyl-1H-1,2,3-triazol-4-yl)methyl)amino)quinoline-3-carbonitrile] |  |
| 7 nM | 305 nM | N#Cc1cnc2c(Cl)cc(N[C@@H](c3ccc(F)cc3)c3cn(C4CC4)nn3)cc2c1Nc1cnc(F)c(F)c1 [Example 456, (S)-8-chloro-6-(((1-cyclopropyl-1H-1,2,3-triazol-4-yl)(4-fluorophenyl)methyl)amino)-4-((5,6-difluoropyridin-3-yl)amino)quinoline-3-carbonitrile] |  |
|  | 177 nM | [2H][C@](Nc1cc(Cl)c2ncc(C#N)c(NCC(C)(C)C)c2c1)(c1ccccc1)c1cn(C2CC2)nn1 [Example 312, (S)-8-chloro-6-(((1-cyclopropyl-1H-1,2,3-triazol-4-yl)(phenyl)methyl-d)amino)-4-(neopentylamino)quinoline-3-carbonitrile] | IC50 [1, 7]: 5 nM |
| 123 nM | 3840 nM | COc1ccc(Nc2c(C#N)cnc3c(Cl)cc(N[C@@H](c4ccccc4)c4cn(C5COC5)nn4)cc23)cn1 [Example 491, (S)-8-chloro-4-((6-methoxypyridin-3-yl)amino)-6-(((1-(oxetan-3-yl)-1H-1,2,3-triazol-4-yl)(phenyl)methyl)amino) quinoline-3-carbonitrile] |  |
